Assays:
[1] = system: small-cell lung cancer cells; details: 100 nM; cited from earlier work
chondrocytes = details: low doses 10 to 100 pM, at the highest dose; cited from earlier work
NPR-B = molecular target: T1, NPR-B (Homo sapiens, UniProt P20594); test: NPR-B induced production of cyclic GMP in GTM-3 cells; type: cell-based; details: EC50, cyclic GMP production, GTM-3 cells, FIG. 2, 4-Parameter Logistic Equation
T1 construct: a functional assay using endogenously NPR-B expressing GTM-3 cells; endogenous in cells; host or cells: GTM-3 (transformed human trabecular meshwork cells)
T1 sequence (P20594 23-1047): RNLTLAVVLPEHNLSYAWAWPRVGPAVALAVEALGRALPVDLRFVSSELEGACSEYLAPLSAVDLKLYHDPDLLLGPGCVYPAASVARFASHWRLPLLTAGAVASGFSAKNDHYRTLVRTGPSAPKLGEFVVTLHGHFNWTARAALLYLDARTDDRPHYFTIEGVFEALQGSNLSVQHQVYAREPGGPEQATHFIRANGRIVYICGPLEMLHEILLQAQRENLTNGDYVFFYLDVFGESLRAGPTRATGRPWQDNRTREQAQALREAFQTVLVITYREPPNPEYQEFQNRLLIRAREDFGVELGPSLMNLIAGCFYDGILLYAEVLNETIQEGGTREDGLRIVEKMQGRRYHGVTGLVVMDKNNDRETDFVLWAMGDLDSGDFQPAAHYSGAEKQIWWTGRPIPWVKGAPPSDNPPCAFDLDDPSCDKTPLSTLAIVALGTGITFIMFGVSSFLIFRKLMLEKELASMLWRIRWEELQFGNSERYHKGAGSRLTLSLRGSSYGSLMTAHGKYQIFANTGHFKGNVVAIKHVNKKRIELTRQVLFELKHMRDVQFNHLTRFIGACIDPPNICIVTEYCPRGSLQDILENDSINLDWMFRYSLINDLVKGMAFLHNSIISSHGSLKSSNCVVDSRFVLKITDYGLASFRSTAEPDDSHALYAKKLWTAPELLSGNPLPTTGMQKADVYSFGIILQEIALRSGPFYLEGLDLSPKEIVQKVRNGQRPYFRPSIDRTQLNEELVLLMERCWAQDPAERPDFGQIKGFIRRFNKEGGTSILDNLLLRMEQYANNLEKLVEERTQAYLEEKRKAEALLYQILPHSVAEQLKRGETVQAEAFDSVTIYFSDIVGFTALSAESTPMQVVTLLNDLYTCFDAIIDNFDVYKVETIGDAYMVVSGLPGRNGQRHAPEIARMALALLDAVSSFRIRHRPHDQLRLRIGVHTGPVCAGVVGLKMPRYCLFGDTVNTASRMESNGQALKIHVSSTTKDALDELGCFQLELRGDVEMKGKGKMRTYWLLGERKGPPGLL
In short: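 GTM-3 cells with endogenous NPR-B were washed and preincubated 15 min at room temperature in medium with 1 mM IBMX. Compounds were tested at final 45 μM to 20 nM; dose-dependent cGMP production gave Emax and EC50.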

NPR-A = NPR-A (Rattus norvegicus, UniProt P18910); test: cell-based
Description: In this homogenous assay, the cells are stimulated in suspension with the test compound and the production of cyclic GMP (cGMP) is determined, from which EC50 values are calculated.
Detached cells are harvested in 20 ml PBS and centrifuged for 10 min at 200×g at room temperature.
20 μl of cells (2.5×10^3 cells) are added to each well of a 96 well white optical bottom tissue culture plate (Nunc, Germany). 10 μl of compound dilution is added and the cells are stimulated for 25 min. at room temperature. The stimulation is stopped by addition of 20 μl of Lysis buffer (reagent included in cGMP Assay Kit).
Determination of cGMP: The amount of produced cGMP in the cells is determined using HitHunter™ cGMP Assay kit (DiscoveRX) according to manufacturer's instructions.
Dilutions are prepared in Medium supplemented with IBMX (1 mM).

AtT-20 cells = details: cited from earlier work
[2] = system: human renal carcinoma cells; details: 100 μM; cited from earlier work

NPR-A, sequence (P18910 29-1057): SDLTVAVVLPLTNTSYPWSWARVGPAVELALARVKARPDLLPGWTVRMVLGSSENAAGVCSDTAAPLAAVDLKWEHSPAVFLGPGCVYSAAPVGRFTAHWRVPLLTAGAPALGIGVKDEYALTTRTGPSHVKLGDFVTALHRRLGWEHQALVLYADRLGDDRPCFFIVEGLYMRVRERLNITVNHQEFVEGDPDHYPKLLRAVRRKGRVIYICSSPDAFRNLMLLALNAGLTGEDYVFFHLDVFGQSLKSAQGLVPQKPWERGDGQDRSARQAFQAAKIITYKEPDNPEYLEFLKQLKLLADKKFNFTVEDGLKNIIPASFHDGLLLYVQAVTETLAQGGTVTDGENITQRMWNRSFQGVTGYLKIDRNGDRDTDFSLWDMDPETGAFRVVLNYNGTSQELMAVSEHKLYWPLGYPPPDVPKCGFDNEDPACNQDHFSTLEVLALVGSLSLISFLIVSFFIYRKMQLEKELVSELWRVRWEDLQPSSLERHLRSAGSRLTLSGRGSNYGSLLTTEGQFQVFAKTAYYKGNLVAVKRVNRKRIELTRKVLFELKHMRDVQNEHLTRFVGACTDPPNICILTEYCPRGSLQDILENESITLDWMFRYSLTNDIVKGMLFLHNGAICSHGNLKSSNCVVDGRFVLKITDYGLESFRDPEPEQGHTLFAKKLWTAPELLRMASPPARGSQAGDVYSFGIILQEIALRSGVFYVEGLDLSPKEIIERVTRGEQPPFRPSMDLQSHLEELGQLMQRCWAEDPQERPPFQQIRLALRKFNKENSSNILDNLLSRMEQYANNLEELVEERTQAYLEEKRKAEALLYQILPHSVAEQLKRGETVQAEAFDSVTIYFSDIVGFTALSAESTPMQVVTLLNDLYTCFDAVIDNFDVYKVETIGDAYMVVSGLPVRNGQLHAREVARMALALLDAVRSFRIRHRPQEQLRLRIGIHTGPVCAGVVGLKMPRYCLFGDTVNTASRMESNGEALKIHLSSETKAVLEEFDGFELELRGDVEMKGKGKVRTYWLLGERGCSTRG

CC[C@H](C)[C@@H]1NC(=O)[C@H](CCCNC(=N)N)NC(=O)[C@H](CC(=O)O)NC(=O)[C@H](CC(C)C)NC(=O)[C@H](CCCCN)NC(=O)[C@H](CC(C)C)NC(=O)CNC(=O)[C@H](Cc2ccccc2)NC(=O)[C@@H](NC(=O)CNC(=O)[C@H](CCCCN)NC(=O)[C@H](CO)NC(=O)[C@H](CC(C)C)NC(=O)CN)CSSC[C@@H](C(=O)O)NC(=O)CNC(=O)[C@H](CC(C)C)NC(=O)CNC(=O)[C@H](CO)NC(=O)[C@H](CCSC)NC(=O)[C@H](CO)NC(=O)CNC1=O [CNP, C-type natriuretic peptide]
decrease in the number of cells [1]: 39%
increase in cellularity (chondrocyte proliferation) (chondrocytes): up to 43%
EC50 (NPR-B): 38.8 nM
EC50 (NPR-A): 1600 nM
stimulation of cGMP production (AtT-20 cells): up to 200 fold
decrease in cell number [2]: 10%

Reference: patent US9458198B1, “Cyclic peptide-based NPR-B agonists” (priority 2009, dated 2016)
